Assays:
[1] = Toxicity in Galleria mellonella larvae assessed as larval […] at 100 mg/kg measured after 24 hrs; type: organism-based; settings: in vivo
Pseudomonas aeruginosa = experiment: Antibacterial activity against Pseudomonas aeruginosa 260-97103 infected in Galleria mellonella larvae assessed as survival of larvae up to 50 mg/kg measured after 24 hrs relative to control; type: functional, organism-based; settings: dose mg/kg <=50, time 24.0 hrs
[2] = Cytotoxicity against human HepG2 cells assessed as cell viability at 12 uM incubated for 48 hrs by prestoblue assay; type: cell-based; settings: read-out: Activity
[3] = Cytotoxicity against human HEK293 cells assessed as cell viability at 12 uM incubated for 48 hrs by prestoblue assay; type: cell-based; settings: read-out: Activity

C[C@@H](O)[C@H]1C(=O)N2C(C(=O)O)=C(S[C@@H]3CN[C@H](C(=O)N(C)C)C3)[C@H](C)[C@H]12 [MEROPENEM]
mortality at 24 h [1]: 100%

COLISTIN
Survival (Pseudomonas aeruginosa): > 50%

COc1cccc2c1C(=O)c1c(O)c3c(c(O)c1C2=O)C[C@@](O)(C(=O)CO)C[C@@H]3O[C@H]1C[C@H](N)[C@H](O)[C@H](C)O1 [DOXORUBICIN]
viability at 48 h, 12 µM [2]: < 10%
viability at 48 h, 12 µM [3]: < 10%

From ChEMBL document CHEMBL4715829, “Heterodimeric Rifampicin-Tobramycin conjugates break intrinsic resistance of Pseudomonas aeruginosa to doxycycline and chloramphenicol in vitro and in a Galleria mellonella in vivo model” (Eur J Med Chem, 2019)
